Laboratory results from patent US7528106B2, “Compositions and methods for treatment of neovascular diseases” (The Scripps Research Institute, priority 2004, dated 2009).
Values joined by “and” are separate entries in the source; they are usually repeats but may differ in a detail not shown here. Identical values can stand only once.

System: deep retinal vascular network formation in neonatal Balb/C mice
Test: Neonatal mouse retinal angiogenesis model
Type: in vivo
Text: Description of the Model. Immediately after birth (postnatal day zero; “P0”), retinal vasculature is virtually absent in the mouse. By four weeks after birth (P28) the retina has attained an adult pattern of retinal vessels coincident with the onset of vision. Physiological neovascularization of the retina occurs during this period via a stereotypical, biphasic developmental pattern of angiogenesis. During the primary phase of retinal vascular development, spoke-like peripapillary vessels grow radially from the central retinal artery and vein, becoming progressively interconnected by a capillary plexus that forms between them. This “inner retinal plexus” grows in area, volume and complexity, centrifugally, as a monolayer within the nerve fiber layer during the first seven to ten days following birth.
The second phase of retinal vessel formation begins between postnatal days 7 (P7) and 10 (P10) when collateral branches sprout from capillaries of the superficial plexus and penetrate into the retina where their tips branch and anastamose laterally to form a planar “deep vascular plexus”. While the deep vascular plexus is in place by P14, it undergoes extensive remodeling from P14 to P21. It is of interest to note that the formation of these vascular networks in the neonatal mouse are strikingly similar to the events occurring in the third trimester human fetus.
Advantages and Quantification of the Model. The reproducibility of the murine retinal development process and its easy accessibility in neonatal animals provide an opportunity to assess the efficacy of antiangiogenic compounds in a physiologically relevant model of angiogenesis. Additional advantages of the neonatal mouse model are the ability to qualitatively and quantitatively evaluate the angiostatic effect of putative antagonists of angiogenesis. Angiostatic activity was evaluated based upon the degree of angiogenesis in the deep, outer retinal vascular layer (secondary layer) that develops between P8 and P12. The appearance of the inner blood vessel network (primary layer) was evaluated for normal development and signs of toxicity.
Preparation of Compositions. Peptidomimetic integrin signaling inhibitor Compound (1) is solubilized in PBS at a concentration of about 20 mg/ml in PBS (1× concentration). T2-TrpRS is solubilized in PBS at a concentration of about 0.5 mg/ml (1× concentration). VEGF aptamer (pegaptanib sodium; Compound (2)) is solubilized in PBS at a concentration of about 2 mg/ml (1× concentration) to achieve an injection of approximately 1 μg/eye at 1× concentration. For all combination assays the compounds were prepared at 2 or 3 times the 1× concentration of each material and then combined to produce a final solution containing each individual compound at the same concentration as was used alone (e.g., 1×, 0.5×, 0.25× or 0.1×, as the case may be). For all assays, a single injection of 0.5 μl of PBS solutions of the drugs was administered intravitreally regardless of the number of compounds being injected. As used herein, the term “0.1×” refers to one tenth of the 1× concentration of a given material, “0.25×” refers to one quarter of the 1× concentration of a given material, “0.5×” refers to one half of the 1× concentration of a given material, and so forth for similar designations.
An in vivo angiogenesis assay in the neonatal mouse (Balb/C, The Jackson Laboratory, Bar Harbor, Me.) was used to evaluate the angiostatic activity of integrin signaling inhibitor Compound (1), T2-TrpRS, and VEGF aptamer Compound (2). Intravitreous injection and retina isolation was performed with a dissecting microscope (SMZ 645, Nikon, Japan). […] The samples (0.5 μl) were injected with a Hamilton syringe fitted with a 32-gauge needle (Hamilton Company, Reno, Nev.). The injection was made between the equator and the corneal limbus. During injection, the location of the needle tip was monitored by direct visualization to determine that it was in the vitreal cavity. […]

[1] = Ex 1, 0.1× (1×=20 mg/ml), intravitreal P8, read P12
[2] = Ex 5, 0.5× (1×=20 mg/ml), intravitreal P4, read P12
[3] = Ex 6, 0.5× (1×=20 mg/ml), intravitreal P4, read P12
[4] = Ex 7, 0.5× (1×=20 mg/ml), intravitreal P4, read P12
[5] = Ex 9, 1× of each (Comp. (1) 20, Comp. (2) 2, T2-TrpRS 0.5 mg/ml), intravitreal P4, read P12
[6] = Table 12, composite data from the Examples, 1×-2×
[7] = Table 13A, 5-10 μg per eye, intravitreal P7, read P12
[8] = Table 13C low dosing, 0.1x (integrin ant. 1.0 μg, VEGF apt. 0.20 μg, T2-TrpRS 0.025 μg)

For `CC(C)(C)COC(=O)N[C@@H](Cc1ccc2c(c1)NC(=O)[C@@H](CCC(=O)Nc1ncc[nH]1)O2)C(=O)[O-].[Na+]` [Compound (1)], which inhibition of neovascularization (0.1× concentrations (1 μg/eye integrin antagonist, 0.2 μg/eye VEGF aptamer, 0.025 μg/eye T2-TrpRS)) is on record?
The inhibition of neovascularization was “negligible”.

What about the “% of eyes with 0-10% inhibition of deep vascular layer” value [1] of the same molecule?
Its value is 40%.

And the “% of eyes with 10-25% inhibition of deep vascular layer” value [1]?
Its value is 0.5%.

And the “% of eyes with 25-50% inhibition of deep vascular layer” value [1]?
The value was 20%.

And the “% of eyes with 50-75% inhibition of deep vascular layer” value [1]?
The value was 20%.

What about the “% of eyes with 75-100% inhibition of deep vascular layer” value [1] of the same molecule?
The value was 20%.

What about the “% of eyes with 0-10% inhibition of deep vascular layer” value [2] of the same molecule?
Its value is 50%.

And the “% of eyes with 10-25% inhibition of deep vascular layer” value [2]?
Its value is 33.3%.

What about the “% of eyes with 25-50% inhibition of deep vascular layer” value [2] of the same molecule?
The value was 16.7%.

And the “% of eyes with 50-75% inhibition of deep vascular layer” value [2]?
The value was 0%.

What about the “% of eyes with 75-100% inhibition of deep vascular layer” value [2] of the same molecule?
The value was 0%.

What about the “% of eyes with 100% inhibition of deep vascular layer” value [2] of the same molecule?
Its value is 0%.

And the “% of eyes with >95% inhibition of deep vascular layer” value [2]?
The value was 0%.

And the “% of eyes with 0-10% inhibition of deep vascular layer” value [3]?
The value was 50%.

What about the “% of eyes with 10-25% inhibition of deep vascular layer” value [3] of the same molecule?
Its value is 12.5%.

And the “% of eyes with 25-50% inhibition of deep vascular layer” value [3]?
Its value is 12.5%.

And the “% of eyes with 50-75% inhibition of deep vascular layer” value [3]?
The value was 12.5%.

And the “% of eyes with 75-100% inhibition of deep vascular layer” value [3]?
Its value is 12.5%.

What about the “% of eyes with 100% inhibition of deep vascular layer” value [3] of the same molecule?
Its value is 0%.

And the “% of eyes with >95% inhibition of deep vascular layer” value [3]?
Its value is 0%.

And the “% of eyes with 0-10% inhibition of deep vascular layer” value [4]?
Its value is 12.5%.

And the “% of eyes with 10-25% inhibition of deep vascular layer” value [4]?
The value was 25%.

And the “% of eyes with 25-50% inhibition of deep vascular layer” value [4]?
The value was 12.5%.

And the “% of eyes with 50-75% inhibition of deep vascular layer” value [4]?
The value was 12.5%.

And the “% of eyes with 75-100% inhibition of deep vascular layer” value [4]?
Its value is 37.5%.

And the “% of eyes with 100% inhibition of deep vascular layer” value [4]?
The value was 0%.

And the “% of eyes with >95% inhibition of deep vascular layer” value [4]?
Its value is 0%.

And the “% of eyes with 0-10% inhibition of deep vascular layer” value [5]?
Its value is 25%.

What about the “% of eyes with 10-25% inhibition of deep vascular layer” value [5] of the same molecule?
Its value is 12.5%.

What about the “% of eyes with 25-50% inhibition of deep vascular layer” value [5] of the same molecule?
The value was 12.5%.

And the “% of eyes with 50-75% inhibition of deep vascular layer” value [5]?
Its value is 37.5%.

And the “% of eyes with 75-100% inhibition of deep vascular layer” value [5]?
The value was 12.5%.

And the “% of eyes with 100% inhibition of deep vascular layer” value [5]?
Its value is 0%.

And the “% of eyes with >95% inhibition of deep vascular layer” value [5]?
Its value is 0%.

And the “% of mice with 0-10% inhibition of deep vascular layer” value [6]?
The value was 33.3%.

What about the “% of mice with 10-25% inhibition of deep vascular layer” value [6] of the same molecule?
The value was 20%.

What about the “% of mice with 25-50% inhibition of deep vascular layer” value [6] of the same molecule?
Its value is 13.3%.

And the “% of mice with 50-75% inhibition of deep vascular layer” value [6]?
Its value is 16.7%.

What about the “% of mice with 75-100% inhibition of deep vascular layer” value [6] of the same molecule?
Its value is 16.7%.

What about the “% of mice with 100% inhibition of deep vascular layer” value [6] of the same molecule?
Its value is 0%.

And the “% of mice with >95% inhibition of deep vascular layer” value [6]?
Its value is 0%.

What about the “Percentage of retinas with 0-10% neovascular inhibition” value [7] of the same molecule?
Its value is 33.3%.

What about the “Percentage of retinas with 10-25% neovascular inhibition” value [7] of the same molecule?
Its value is 20.0%.

What about the “Percentage of retinas with 25-50% neovascular inhibition” value [7] of the same molecule?
Its value is 13.3%.

What about the “Percentage of retinas with 50-75% neovascular inhibition” value [7] of the same molecule?
The value was 16.7%.

And the “Percentage of retinas with 100% neovascular inhibition” value [7]?
Its value is 0.0%.

And the “Percentage of retinas with >75% neovascular inhibition” value [7]?
Its value is 16.7%.

And the “Percentage of retinas with >90% neovascular inhibition” value [7]?
Its value is 0.0%.

And the “Percentage of retinas with 0-10% neovascular inhibition” value [8]?
The value was 90%.

What about the “Percentage of retinas with 10-25% neovascular inhibition” value [8] of the same molecule?
The value was 10%.

What about the “Percentage of retinas with 25-50% neovascular inhibition” value [8] of the same molecule?
Its value is 0%.

What about the “Percentage of retinas with 50-75% neovascular inhibition” value [8] of the same molecule?
The value was 0%.

And the “Percentage of retinas with 100% neovascular inhibition” value [8]?
Its value is 0%.

And the “Percentage of retinas with >75% neovascular inhibition” value [8]?
Its value is 0%.

What about the “Percentage of retinas with >90% neovascular inhibition” value [8] of the same molecule?
Its value is 0%.

And the optimal effective dose (dosing experiments, bell-shaped efficacy curve, listed as integrin antagonist)?
Its optimal effective dose is 5-10 μg per eye and 10-20 nmoles per eye.

What about the “retinas that exhibited over 75% inhibition” value (monotherapy at optimal dose) of the same molecule?
The value was 17%.

And the “retinas unaffected by injection” value (monotherapy at the maximum individual dose)?
Its value is “around 35%”.
